Measurements as given in paper PMC4164440, “Blood Pressure-Lowering Peptides from Neo-Fermented Buckwheat Sprouts: A New Approach to Estimating ACE-Inhibitory Activity” (PLoS ONE, 2014).
Where two headings read alike, the source gives them in different places. Where a SMILES comes first, the peptide text is derived from it.

Columns and labels:
[1] = biological target: T1, Ang II-mediated vasoconstriction (Rattus norvegicus, UniProt P47820); assay: Ex vivo ACE inhibition assay: Ang II-mediated vasoconstriction of endothelium-denuded thoracic aorta rings; design: species or system spontaneously hypertensive rats (SHRs); settings: 0.2 µM Ang I, read-out: EC50 of suppression of Ang II-mediated vasoconstriction
T1 sequence (P47820 36-1313): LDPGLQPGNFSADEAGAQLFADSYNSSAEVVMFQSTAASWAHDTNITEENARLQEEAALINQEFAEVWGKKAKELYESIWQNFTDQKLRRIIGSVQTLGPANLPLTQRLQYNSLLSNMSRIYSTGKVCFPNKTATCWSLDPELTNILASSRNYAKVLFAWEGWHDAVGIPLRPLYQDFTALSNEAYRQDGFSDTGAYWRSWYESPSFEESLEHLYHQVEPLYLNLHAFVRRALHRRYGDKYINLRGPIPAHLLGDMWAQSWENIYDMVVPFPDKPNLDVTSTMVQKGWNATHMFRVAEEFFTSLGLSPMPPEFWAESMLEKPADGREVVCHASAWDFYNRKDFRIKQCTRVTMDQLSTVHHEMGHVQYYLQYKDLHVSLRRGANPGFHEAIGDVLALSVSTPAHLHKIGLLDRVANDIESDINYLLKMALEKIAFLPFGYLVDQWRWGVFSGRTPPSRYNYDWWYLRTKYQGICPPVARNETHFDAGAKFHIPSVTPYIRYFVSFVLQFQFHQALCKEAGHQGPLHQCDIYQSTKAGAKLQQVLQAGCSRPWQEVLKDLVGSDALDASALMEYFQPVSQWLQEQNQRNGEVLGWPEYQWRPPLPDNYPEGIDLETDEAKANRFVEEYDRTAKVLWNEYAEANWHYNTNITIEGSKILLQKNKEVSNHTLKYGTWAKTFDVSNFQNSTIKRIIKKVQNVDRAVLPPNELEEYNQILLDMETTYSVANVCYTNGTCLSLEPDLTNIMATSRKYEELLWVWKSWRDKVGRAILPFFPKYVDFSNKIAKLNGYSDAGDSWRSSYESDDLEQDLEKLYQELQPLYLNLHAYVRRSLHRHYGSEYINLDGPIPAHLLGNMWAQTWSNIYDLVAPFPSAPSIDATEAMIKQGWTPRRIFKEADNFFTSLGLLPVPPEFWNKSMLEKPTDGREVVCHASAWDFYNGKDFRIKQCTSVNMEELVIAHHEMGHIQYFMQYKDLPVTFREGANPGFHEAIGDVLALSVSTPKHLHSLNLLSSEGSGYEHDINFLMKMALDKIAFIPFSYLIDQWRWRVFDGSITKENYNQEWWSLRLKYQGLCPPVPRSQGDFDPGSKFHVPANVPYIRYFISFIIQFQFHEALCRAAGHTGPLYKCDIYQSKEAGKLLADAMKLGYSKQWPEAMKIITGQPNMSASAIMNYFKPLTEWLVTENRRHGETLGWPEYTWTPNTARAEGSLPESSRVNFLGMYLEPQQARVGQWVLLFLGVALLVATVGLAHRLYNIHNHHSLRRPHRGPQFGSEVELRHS

[2] = biological target: T2, ACE in thoracic aorta tissue (Rattus norvegicus, UniProt P47820); assay: Ex vivo ACE inhibition assay: Ang II production in endothelium-denuded thoracic aorta rings (UPLC-MS)
T2 sequence (P47820 36-1313): T1 sequence (P47820 36-1313)
Description: Isolation of the thoracic aorta from SHRs (n = 12) and preparation of endothelium-denuded aortic rings was performed as described above. Endothelium was removed to eliminate the influence of endothelium-derived vasodilators.
After 30 min incubation, 1.0 mL of 0.20 µM Ang I was added and the aortic tension was recorded. When vasoconstriction plateaued, Krebs solution in the organ bath was transferred to a test tube and heated at 90°C for 5 min to stop the enzyme reaction; the heat-treated samples were dried under vacuum and frozen at −80°C until UPLC-MS analysis. The aorta rings were used in the BCA assay to express Ang II production as pmol/mg-protein.
Vacuum-dried samples were dissolved in 500 µL acetonitrile/4.0 mM ammonium formate (5∶95 v/v) with 4.0 mM formic acid prior to UPLC-MS analysis, performed at the CREFAS (Collaborated Research Center for Food Functions, Faculty of Agriculture, Shinshu University); Quattro micro API (MS) with an ACQUITY UPLC (Waters Co., USA) was used. Separation was conducted at 35°C using a CHEMCOBOND 5-ODS-W reversed-phase column (4.6×150 mm; ChemcoPlus Scientific Co., Ltd. Kyoto, Japan). […] Mass spectra were acquired in electrospray ionization (ESI) mode using 3500 V capillary voltage, 30 V cone voltage, 350 L/h N2 gas flow (desolvation), 50 L/h N2 gas flow (cone), 100°C source temperature, and 350°C desolvation temperature. […] For each sample, measurements were performed in triplicate; the results were expressed as the mean ± S.E.

[3] = biological target: T3, ACE (EC 3.4.15.1) purified from the rabbit lungs (Oryctolagus cuniculus, UniProt P12822); assay: biochemical
T3 construct: ACE (EC 3.4.15.1) purified from the rabbit lungs; purchased Sigma-Aldrich Japan K.K; host or cells: rabbit lung (tissue-purified)
T3 sequence (P12822 34-1310): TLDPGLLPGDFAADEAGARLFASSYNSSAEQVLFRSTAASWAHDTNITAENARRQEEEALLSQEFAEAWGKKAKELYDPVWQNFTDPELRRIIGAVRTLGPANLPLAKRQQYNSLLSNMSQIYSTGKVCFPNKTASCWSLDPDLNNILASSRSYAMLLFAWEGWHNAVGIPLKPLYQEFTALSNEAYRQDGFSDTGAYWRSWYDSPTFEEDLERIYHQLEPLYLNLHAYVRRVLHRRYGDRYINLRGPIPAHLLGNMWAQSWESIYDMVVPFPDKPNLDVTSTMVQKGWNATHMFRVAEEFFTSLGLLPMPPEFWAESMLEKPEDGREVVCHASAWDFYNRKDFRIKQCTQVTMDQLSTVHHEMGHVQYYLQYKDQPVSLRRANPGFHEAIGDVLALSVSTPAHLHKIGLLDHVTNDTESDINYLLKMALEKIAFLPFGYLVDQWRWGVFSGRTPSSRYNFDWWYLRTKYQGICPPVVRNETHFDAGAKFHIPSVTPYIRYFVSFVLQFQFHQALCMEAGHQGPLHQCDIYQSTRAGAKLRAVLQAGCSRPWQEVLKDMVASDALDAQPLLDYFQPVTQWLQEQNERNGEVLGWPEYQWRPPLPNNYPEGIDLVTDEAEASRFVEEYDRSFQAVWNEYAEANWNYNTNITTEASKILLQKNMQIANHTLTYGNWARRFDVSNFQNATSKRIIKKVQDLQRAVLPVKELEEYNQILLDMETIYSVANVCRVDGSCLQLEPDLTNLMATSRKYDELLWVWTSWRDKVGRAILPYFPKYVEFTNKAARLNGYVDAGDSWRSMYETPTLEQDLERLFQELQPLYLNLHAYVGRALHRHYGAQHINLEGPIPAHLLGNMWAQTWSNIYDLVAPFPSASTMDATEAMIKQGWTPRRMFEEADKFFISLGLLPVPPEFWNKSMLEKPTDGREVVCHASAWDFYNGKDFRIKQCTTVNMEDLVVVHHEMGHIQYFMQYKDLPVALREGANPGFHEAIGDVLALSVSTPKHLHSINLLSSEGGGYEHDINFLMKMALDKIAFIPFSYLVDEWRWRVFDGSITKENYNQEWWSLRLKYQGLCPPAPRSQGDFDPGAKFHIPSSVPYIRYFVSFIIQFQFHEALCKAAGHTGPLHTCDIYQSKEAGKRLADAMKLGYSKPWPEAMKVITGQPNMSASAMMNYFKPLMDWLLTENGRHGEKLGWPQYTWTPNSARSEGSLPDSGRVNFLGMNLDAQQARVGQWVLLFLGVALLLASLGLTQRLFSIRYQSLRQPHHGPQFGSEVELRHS
Description: ACE (EC 3.4.15.1) purified from the rabbit lungs was obtained from Sigma-Aldrich Japan K.K. (Tokyo, Japan). Hippuryl-L-histidyl-L-leucine (Hip-His-Leu) was obtained from the Peptide Institute (Osaka, Japan). Ammonium formate, borate, diethyl ether, ethyl acetate, formate, hydrochloric acid (HCl), HPLC-grade acetonitrile, sodium chloride (NaCl), potassium chloride (KCl), potassium dihydrogen phosphate (KH2PO4), magnesium acetate (Mg(CH3COO)2), magnesium sulfate (MgSO4), Nonidet P-40, sodium hydrogen carbonate (NaHCO3), sucrose, and tris(hydroxymethyl)aminomethane were purchased from Kanto Chemical Co., Inc. (Tokyo, Japan). Trifluoroacetic acid (TFA) was purchased from Watanabe Chemical Industries, Ltd. (Hiroshima, Japan).
The in vitro ACE inhibition assay was performed using the method described previously. […] Then, 100 µL of commercial ACE (6.0 mU) was added, and the mixture was incubated at 37°C for 30 min. The reaction was stopped by 250 µL of 1.0 N HCl. Released hippuric acid (Hip) was extracted with 1.0 mL ethyl acetate and quantified by HPLC according to our previous report.

ACE = test system: ACE; design: method as in PMID 7673515; settings: ref [7], [8]; read-out: in vitro ACE-inhibitory activity IC50; cited from earlier work
[4] = test system: systolic and diastolic blood pressure; settings: SHRs; ref [8]; cited from earlier work
[5] = Hip-His-Leu substrate, mean ± S.E., n = 3, read-out: In vitro ACE-inhibitory activity IC50

IC50 [3, 5] [µM] | Compound | EC50 [1] [µM] | IC50 [2] [µM] | IC50 [3] [µM] | further results
 | CC(C)[C@H](NC(=O)[C@@H](N)CC(=O)O)C(=O)N[C@@H](Cc1c[nH]c2ccccc12)C(=O)N[C@@H](Cc1ccc(O)cc1)C(=O)O [DVWY] (H-DVWY-OH) | 68.2 | 70.5 | 690 ± 40 | 
 | C[C@H](NC(=O)[C@H](CC(=O)O)NC(=O)[C@@H](N)Cc1ccccc1)C(=O)N[C@@H](CCCNC(=N)N)C(=O)N[C@H](C(=O)O)[C@@H](C)O [FDART] (H-FDART-OH) | 53.6 | 41.7 | 1900 ± 100 | 
7400 ± 600 | NC(=O)CC[C@H](NC(=O)[C@@H](N)Cc1ccccc1)C(=O)O [FQ] | 85.1 | 90.9 |  | 
55900 ± 1900 | CC(C)[C@H](N)C(=O)N[C@@H](C)C(=O)N[C@@H](CCC(=O)O)C(=O)O [VAE] (H-Val-Ala-Glu-OH) |  |  |  | 
39600 ± 5700 | CC(C)[C@H](N)C(=O)N[C@H](C(=O)NCC(=O)O)C(C)C [VVG] (H-Val-Val-Gly-OH) |  |  |  | 
 | C[C@@H](O)[C@H](NC(=O)[C@@H](N)Cc1c[nH]c2ccccc12)C(=O)N[C@@H](Cc1ccccc1)C(=O)N[C@@H](CCCNC(=N)N)C(=O)O [WTFR] (H-WTFR-OH) | 36.8 | 5.64 | 6700 ± 500 | reduction of Ang II production ([2]; at 10 µM, endothelium-denuded rings, 0.2 µM Ang I): 59%
 | Val-Tyr [VY] |  |  |  | IC50 (ACE): 26 µM; minimum effective BPL dose [4]: 1.0 mg/kg
